Values joined by “and” are separate entries in the source; they are usually repeats but may differ in a detail not shown here. Equal values may be shown once. “Also recorded” adds a separate entry of the source.
Assays:
[1] = test system: Lipin-1 deficient myoblasts; assay: Oxidized DNA (8-OHdG) immunofluorescence staining in myoblasts under immunometabolic stress; assay type: cell-based, human
Protocol: (§1) Human primary myoblasts were isolated and grown as described^19. Briefly, CD56+ myoblasts isolated by flow cytometry cell sorting were maintained in HamF10 medium supplemented with 20% fetal calf serum on culture plates coated with 1% gelatin. To mimic RM, F10 medium was replaced by EBSS ([…]) (4 h) with TLR9 agonist CpGA (ODN2216) at the concentration of 10 μg/ml. Myoblasts were incubated with various HCQ concentrations (0.1 to 10 μM) 18 h before and during myoblasts starvation.
Imuunofluorescence staining. Oxidized DNA on fixed cells was detected with mouse-anti-8-OHdG (sc-66036, Santa Cruz Biotechnology, IF: 1:100)^54 and analyzed by confocal fluorescence microscopy. Images were recorded on a confocal LSM 700 microscope (Zeiss), with a 63× oil immersion objective and quantification was performed by analyzing cells on the Icy software (v 1.9.5.1 BioImage Analysis unit, Institut Pasteur, France).

[2] = test system: patients with Lipin-1 deficiency; assay: 6-Minute Walk Test and 3-Minute Step Test; assay type: in vivo, human; conditions: patients older than 6 y; versus prior treatment
Protocol: Muscle function was assessed by walking capacity within a 6-Minute Walk Test (6 MWT)^48,49 and by stair climbing capacity within a 3-Minute Step Test (3 MST)^50. The objectives were to walk and climb steps as far as possible for 6 and 3 minutes respectively.

[3] = test system: CYP3A4/CYP2C8; conditions: cited from earlier work
[4] = test system: TLR9; assay: Relative TLR9 expression in myoblasts, RT-qPCR; assay type: cell-based, human; conditions: patient and control myoblasts; EBSS + CpG-A
Description: FIG. 7.(A-C) Relative TLR9 expression in Lipin-1 deficient and control myoblasts; comparison between basal condition and immunometabolic stress (A-B) and after HCQ treatment compared to immunometabolic stress (C); RT-qPCR. compared to basal condition in myoblasts. GM: growth medium; E: EBSS; C: CpG-A; HCQ: Hydroxychloroquine.
as §1

[5] = test system: patients with Lipin-1 deficiency; assay: Muscle pain (VAS) and quality-of-life (PedsQL) questionnaires; assay type: in vivo, human
Description: VAS questionnaire was completed by the patient and their parents for evaluating muscle pain, ranged from score 4: not painful, to 40: very painful. Two Quality-of-life assessment ([…]) adapted to the age of the patient were completed by either the patient or their parents. The score ranged from 0: very good quality of life, to 92: very bad quality of life.

[6] = test system: Lipin-1 deficient myoblasts; assay: MtDNA levels by qPCR in myoblasts under immunometabolic stress; assay type: cell-based, human; conditions: myoblasts of P1, P4, P6 and P11; results need to be reproduced
Protocol: as §1
MtDNA levels was performed by using qPCR for the mitochondrial12S gene reported to the nuclear β-actin gene. Quantitative PCR was performed in triplicate using the Light Cycler VIIA7 System (Roche).

[7] = test system: patients with Lipin-1 deficiency; assay: Echocardiography (LVEF); assay type: in vivo, human
Protocol: Echocardiography was performed using a Vivid 9 system (General Electric Vingmed Ultrasound, Horten, Norway). Transducers ([…]) were chosen based on patient size and morphology to obtain the best image resolution. Images were acquired and stored in a digital format by two experienced examiners for offline analysis using EchoPac version 112.0.1 software (General Electric Vingmed). All records were performed while the patient was in sinus rhythm under continuous monitoring via electrocardiogram. All measurements of ventricular dimensions and function were performed according to the guidelines of the American and European Societies of Echocardiography^51.
The global longitudinal strain of the left ventricle was defined as the percentage of change during myocardial deformation and was evaluated through the speckle-tracking method using EchoPac (2D strain Q analysis) version 112.0.1 (General Electric Vingmed)^11.

[8] = test system: LC3-II in Lipin-1 deficient and control myoblasts; assay: Autophagy: LC3-II/B-actin ratio by Western Blot in primary myoblasts under immunometabolic stress (EBSS + CpG-A); assay type: cell-based, human
Protocol: as §1
Autophagy measurements. Autophagy was analyzed using the LC3-II/B-actin ratio by Western Blot. The following antibodies used in this study were: mouse-anti-β-actin (sc-81178, Santa Cruz Biotechnology, western blotting (WB): 1:5000), mouse-anti-LC3B (clone 4E12, MBL International, IF: 1:100).

[9] = test system: primary patients myoblasts; assay type: cell-based, human
Description: Then, we were interested in the dosage og HCQ in vitro in order to analyse the HCQ incorporation in primary patients myoblasts.

[10] = test system: MCP-1; assay: Plasma cytokine concentration, Cytometric Bead Assay; assay type: in vivo, human; conditions: all patients tested, following vs prior treatment
Protocol: (§2) Cytokine concentrations were measured in plasma using a ten-plex Cytometric Bead Assay (CBA) kit from BD Biosciences, according to the manufacturer's instructions, then analyzed by flow cytometry (ARIA II; BD Biosciences) with CBA Analysis Software (FCAP Array version 3.0; Soft Flow, St Louis Park, Minn.). The results were expressed in picograms per milliliter.

[11] = test system: IL8; assay: as above; assay type: in vivo, human; conditions: all patients tested, following vs prior treatment
Protocol: as §2

[12] = Dosage of Hydroxychloroquine in blood/plasma of treated patients; assay type: in vivo, human
Protocol: Clinical and biological parameters were evaluated in parallel of the dosage of HCQ, performed on total blood samples with HPLC. Biological parameter consisted in measuring pro-inflammatory cytokines in plasma with […]. Physical condition included muscle pain (VAS score), quality-of-life assessment (PedsQL™ score), the distance walked during the 6-minute test, the number of steps climbed during the 3-minute test, cardiac function and sub-maximal exercise test. In vitro studies were performed on primary myoblasts from 4 patients and healthy controls. Autophagy was analyzed by measuring the ratio between LC3-II and B-actin by Western Blot. Oxidized DNA was studied by immunofluorescence staining. MtDNA levels was performed by using qPCR.
The dosage of Hydroxychloroquine was performed on total blood samples at a rate of 5 ml per assay tube, using EDTA tubes, and stored at +4° C. (dosages performed in the pharmacology/toxicology Department of the Hospital Cochin and Hospital La Pitié-Salpétrière).

[13] = test system: patients with Lipin-1 deficiency; assay: Evaluation of the tolerance of HCQ (allergy, abdominal pain, eye fundus, retinogram); assay type: in vivo, human
[14] = test system: patients with Lipin-1 deficiency; assay: Cardiopulmonary exercise test, cycle ergometer (dQ/dVO2); assay type: in vivo, human
Protocol: Patients≥6 years old underwent cardiopulmonary exercise tests (CPETs). CPETs were performed to assess the maximal exercise capacity using a cycle ergometer^11. The CPET data were compared with retrospectively collected data from a population of 21 paired children who required non-invasive cardiac output monitoring because of dyspnoea during exercise or chest pain and were considered healthy at the end of the examinations. Pairing was conducted according to sex and age. Oxygen uptake (VO2) and carbon dioxide output were measured breath-by-breath by an automated system (Sensor Medic, MSE). Measurements were taken at rest and every 20 s throughout exercise and recovery. The exercise test was considered maximal if the patient achieved a respiratory exchange ratio (RER)>1.1 and/or a maximal heart rate>85% of the theoretical maximal heart rate, and/or the oxygen uptake reached a plateau^11. Cardiac output (Q) and stroke volume (SV) were determined noninvasively during the exercise test using a thoracic bioelectrical impedance device (PhysioFlow, PF-05 Lab 1, Manatec Biomedical) as routinely performed in our centre. We calculated the slope of the relationship between cardiac output and oxygen utilization (dQ/dVO2) using measurements of Q and VO2 at rest as well as during submaximal and maximal exercise.

[15] = test system: patients with Lipin-1 deficiency; assay: Off open-label use phases 1 and 2 study: number of rhabdomyolysis (RM) episodes under HCQ; assay type: in vivo, human
Protocol: Ten patients with Lipin-1 deficiency were progressively enrolled in an off open-label use phases 1 and 2 study to assess safety, clinical, and biological effects of Hydroxychloroquine Sulfate (HCQ). The diagnosis of Lipin-1 disease was confirmed in all patients (Table 1). LPIN1 genotyping was performed by PCR analysis of DNA isolated from blood as previously described^2. The patients presented severe episodes of acute RM (1 to 6) defined as creatine kinase (CK) levels >6 000 U/L (normal<160 U/L), associated with mild viral illness, fasting, or prolonged exercise. Chronic symptoms such as muscle pain, fatigability, exercise intolerance, or more rarely cardiac feature were associated in 6 patients.
The patients were treated with oral HCQ at an initial posology of 6.5 mg/Kg/day in one intake, not exceeding 400 mg/day, with different treatment duration depending on the patient (Table 2). Tablets (200 mg) were proposed to patients over 6 years old, and soluble form to patients under 6 years old.
Efficacy and safety of HCQ in patients were assessed by clinical and biological evaluation determined at baseline before HCQ treatment and at regular intervals after initiation of HCQ treatment (every 3 to 6 months).
The clinical parameters encompassed the RM episode number and several standardized tools based on age at study start: auto evaluations assessing the muscle pain and the quality of life, 6-Minute Walk Test, 3-Minute Step Test, heart ultrasounds, and exercise tolerance test in the subgroup of subjects>6 years old^11.
The patients were treated with oral HCQ at a initial posology of 6.5 mg/Kg/day in one intake, not exceeding 400 mg/day, with different treatment duration depending on the patient (Table 2). The data were collected at the Necker Hospital (Reference Center of Metabolic diseases) during the visits: M0 (before treatment), M3 (3 months treatment), M6 then every 6 months. The efficacy outcome of the treatment was measured by clinical and biological endpoints.

CCN(CCO)CCCC(C)Nc1ccnc2cc(Cl)ccc12.O=S(=O)(O)O (centres unmarked) [HCQ, 2-[[4-[(7-Chloro-4-quinolyl)amino]pentyl]ethylamino] ethanol sulfate (1:1)]
oxDNA levels in myoblasts ([1]; HCQ 0.1 to 10 μM): normalized oxDNA levels
accumulation of oxDNA under immunometabolic stress ([1]; myoblasts of P1, P4, P6 and P11, EBSS + CpG-A): prevents this accumulation
increase of median score in 3 MST following treatment [2]: 31 steps
increase of median score in 6 MWT following treatment [2]: ~100 meters
share of the HCQ metabolism by CYP3A4/CYP2C8 [3]: 80%
TLR9 expression under stress condition [4]: variable effect; also recorded: could not decrease TLR9 expression
VAS pain score, change under treatment ([5]; 2 other patients): no difference
VAS pain score, median following treatment ([5]; 4 patients, score 4 not painful - 40 very painful, median 12.25 prior treatment): 7
PedsQL quality-of-life median score under treatment ([5]; 6 patients, 0 very good - 92 very bad, score 25 before treatment): 17.1
accumulation of mtDNA under immunometabolic stress [6]: prevents this accumulation
LVEF ([7]; patient P3, M3 of treatment, 45% before): 62%
LVEF ([7]; patient P3, M6, M9, M12 following treatment): 63%
LVEF ([7]; patient P3, after they stopped treatment): 55%
LC3-II accumulation (autophagy blockage) under immunometabolic stress ([8]; HCQ 10 μM, control and patients myoblasts): potentiates LC3-II accumulation
LC3-II accumulation (autophagy blockage) under immunometabolic stress ([8]; HCQ 0.1 and 1 μM): less deleterious
HCQ incorporation in primary myoblasts [9]: HCQ incorporation is effective
plasma level of MCP-1 [10]: reduced
plasma level of IL8 [11]: reduced
plasma HCQ levels ([12]; P5 and P6, who experimented RM, oral 6.5 mg/Kg/day): 1000 ng/mL
Plasma HCQ (μg/L) mean ([12]; patient P1-P10, oral HCQ, mean of visits): 107 µg/L and 724 µg/L and 627 µg/L and 1048 µg/L and 1040 µg/L and 290 µg/L and 610 µg/L and 407 µg/L and 752 µg/L and 318 µg/L
Plasma HCQ (μg/L) (median) ([12]; patient P1-P10, oral HCQ, median of visits): (107) μg/L and (854) μg/L and (597) μg/L and (955) μg/L and (1092) μg/L and (205) μg/L and (610) μg/L and (367) μg/L and (733) μg/L and 325) μg/L
Levels of HCQ measured at each visit ([12]; patients other than P5 and P6, oral 6.5 mg/Kg/day): ~400 ng/mL
Electroretinogramms and eye fundus ([13]; 12 months of treatment, all patients tested): normal
allergy symptoms with HCQ treatment ([13]; all patients): Any allergy symptoms have been observed
tolerance of HCQ in patients ([13]; overall): well tolerated
Side effects associated with HCQ ([13]; patients 5 and 6): abdominal pain
dQ/dVO2 ratio after initiation of treatment, global mean ([14]; four patients with abnormal peripheral muscle, baseline means 7, 9.5, 9.1, 7.5): 5.8
dQ/dVO2 ratio under treatment, mean ([14]; patient P3 with cardiac failure, baseline mean 4): 4.8
patients without new acute RM under treatment ([15]; of 10 patients, 29 RM prior to treatment): Seven
RM after resumption of treatment ([15]; patient P1): No other RM was observed
RM after HCQ disruption ([15]; patient P1, discontinued at M9, within 6 weeks after disruption): underwent extensive RM
Number of severe RM (CPK > 10k U/L) during treatment ([15]; patient P1-P10, oral HCQ, initial 6.5 mg/Kg/day, treatment duration 12-41 months): 0 (7×) and 1 and 3 and 4
episodes of RM despite HCQ ([15]; patient P5, context of gastroenteritis): one
episodes of RM despite HCQ ([15]; patient P6, context of gastroenteritis): two
benefit effect of HCQ ([15]; patient P7): had not seem to have benefit effect

Reference: US20230066065A1, “USE OF LOW DOSES OF HYDROXYCHLOROQUINE FOR THE TREATMENT OF LIPIN-1 DEFICIENCY” (Institut National de la Santé et de la Recherche Médicale …, priority 2020, published 2023)
